According to patent US20150099800A1, “NOVEL LIPASE INHIBITORS, REPORTER SUBSTRATES AND USES THEREOF” (Northeastern University, priority 2012, published 2015):
“Also recorded” adds a separate entry of the source. Read-outs that look alike come from different tables or passages of the source. One block for each compound: values may come before it.

Legend:
hDAGLα [1] = target: T1, hDAGLα (Homo sapiens, UniProt Q9Y4D2); test: Evaluation of FRET reporter substrates for enzymatic hydrolysis; assay type: biochemical; set-up: V5; His; expressed in transfected cells; host or cells: HEK293T, transient; crude cell lysate or membrane preparation
T1 sequence (Q9Y4D2 1-1042): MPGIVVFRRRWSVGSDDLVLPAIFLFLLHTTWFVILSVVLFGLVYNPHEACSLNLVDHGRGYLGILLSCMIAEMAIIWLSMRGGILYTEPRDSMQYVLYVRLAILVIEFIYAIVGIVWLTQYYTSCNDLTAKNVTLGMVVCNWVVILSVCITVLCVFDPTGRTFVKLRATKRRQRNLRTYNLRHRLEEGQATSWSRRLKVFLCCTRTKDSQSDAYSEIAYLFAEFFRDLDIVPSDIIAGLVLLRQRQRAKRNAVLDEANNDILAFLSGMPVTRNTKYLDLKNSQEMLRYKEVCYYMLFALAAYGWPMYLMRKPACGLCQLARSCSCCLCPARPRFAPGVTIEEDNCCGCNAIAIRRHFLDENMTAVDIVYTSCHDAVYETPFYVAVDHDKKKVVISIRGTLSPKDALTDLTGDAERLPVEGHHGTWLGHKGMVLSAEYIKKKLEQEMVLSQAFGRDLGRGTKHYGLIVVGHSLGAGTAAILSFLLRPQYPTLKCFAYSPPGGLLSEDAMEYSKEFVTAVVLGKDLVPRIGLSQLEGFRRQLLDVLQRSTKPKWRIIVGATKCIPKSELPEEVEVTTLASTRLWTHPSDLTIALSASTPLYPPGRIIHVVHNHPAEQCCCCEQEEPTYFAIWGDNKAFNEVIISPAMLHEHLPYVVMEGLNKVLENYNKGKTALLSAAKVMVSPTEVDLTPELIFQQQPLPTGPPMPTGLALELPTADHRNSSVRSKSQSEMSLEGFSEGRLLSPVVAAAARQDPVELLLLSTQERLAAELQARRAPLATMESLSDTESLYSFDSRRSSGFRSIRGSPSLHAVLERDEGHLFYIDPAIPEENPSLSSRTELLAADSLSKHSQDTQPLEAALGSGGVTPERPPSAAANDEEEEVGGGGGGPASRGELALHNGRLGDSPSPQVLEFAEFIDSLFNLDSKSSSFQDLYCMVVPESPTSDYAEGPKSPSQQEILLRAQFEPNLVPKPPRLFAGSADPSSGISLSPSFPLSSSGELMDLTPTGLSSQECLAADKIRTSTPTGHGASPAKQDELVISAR
Excerpt: Reporter compounds as substrates for hDAGLα activity with HEK293T cell lysates in the presence of 10% DMSO are shown. A) Pyrenyl analogs (17)-(19), (21), and (22) (EX 320 nm, EM 400 nm). B) NBD analog (20) (EX 485 nm, EM 535 nm).
A convenient in vitro fluorometric esterase assay utilizing the BioTek Instruments Synergy™ HT Multi-Mode Microplate 96-well reader was developed that measured nanomolar concentrations of fluorescent reaction product.

[2] = tested on: Lipoprotein Lipase (Bacterial); assay type: biochemical, Pseudomonas sp.
[3] = target: T2, Pancreatic Lipase (Porcine) (Sus scrofa, UniProt P00591); assay type: biochemical
T2 construct: purchased Sigma L3126
T2 sequence (P00591 1-450): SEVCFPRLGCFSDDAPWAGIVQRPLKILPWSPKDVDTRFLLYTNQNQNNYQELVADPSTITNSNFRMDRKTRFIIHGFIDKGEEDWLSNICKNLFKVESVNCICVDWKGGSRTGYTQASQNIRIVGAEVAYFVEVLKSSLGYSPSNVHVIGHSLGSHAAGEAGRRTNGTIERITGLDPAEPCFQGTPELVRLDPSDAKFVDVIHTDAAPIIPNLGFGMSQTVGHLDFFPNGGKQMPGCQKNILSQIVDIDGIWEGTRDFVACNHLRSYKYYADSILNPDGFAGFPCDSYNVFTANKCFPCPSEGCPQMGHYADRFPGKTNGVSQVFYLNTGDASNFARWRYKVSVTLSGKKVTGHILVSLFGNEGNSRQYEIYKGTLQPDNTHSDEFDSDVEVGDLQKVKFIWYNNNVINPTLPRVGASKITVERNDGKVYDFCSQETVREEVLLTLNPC

MAGL [4] = target: T3, MAGL (Homo sapiens, UniProt Q99685); test: hMAGL coumarin substrate fluorescence assay; assay type: biochemical; set-up: The N-terminal his-tagged full length human monoacylglycerol lipase used; His (N); made in house; host or cells: E. coli
T3 sequence (Q99685 1-303): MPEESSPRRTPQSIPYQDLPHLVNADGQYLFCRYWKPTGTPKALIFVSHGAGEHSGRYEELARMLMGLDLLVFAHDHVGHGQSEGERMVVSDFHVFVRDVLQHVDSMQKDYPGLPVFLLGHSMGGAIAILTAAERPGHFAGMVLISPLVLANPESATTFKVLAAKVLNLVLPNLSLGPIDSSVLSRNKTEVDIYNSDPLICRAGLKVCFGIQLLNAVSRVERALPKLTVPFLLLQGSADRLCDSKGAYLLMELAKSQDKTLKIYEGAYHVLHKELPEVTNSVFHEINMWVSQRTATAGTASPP

hDAGLα [5] = target: T1, hDAGLα
rFAAH = target: T4, rFAAH (Rattus norvegicus, UniProt P97612); test: rFAAH coumarin substrate fluorescence assay; assay type: biochemical
T4 construct: His (N); made in house; host or cells: E. coli (cell line provided by the Cravatt group)
T4 sequence (P97612 30-579 limits assumed): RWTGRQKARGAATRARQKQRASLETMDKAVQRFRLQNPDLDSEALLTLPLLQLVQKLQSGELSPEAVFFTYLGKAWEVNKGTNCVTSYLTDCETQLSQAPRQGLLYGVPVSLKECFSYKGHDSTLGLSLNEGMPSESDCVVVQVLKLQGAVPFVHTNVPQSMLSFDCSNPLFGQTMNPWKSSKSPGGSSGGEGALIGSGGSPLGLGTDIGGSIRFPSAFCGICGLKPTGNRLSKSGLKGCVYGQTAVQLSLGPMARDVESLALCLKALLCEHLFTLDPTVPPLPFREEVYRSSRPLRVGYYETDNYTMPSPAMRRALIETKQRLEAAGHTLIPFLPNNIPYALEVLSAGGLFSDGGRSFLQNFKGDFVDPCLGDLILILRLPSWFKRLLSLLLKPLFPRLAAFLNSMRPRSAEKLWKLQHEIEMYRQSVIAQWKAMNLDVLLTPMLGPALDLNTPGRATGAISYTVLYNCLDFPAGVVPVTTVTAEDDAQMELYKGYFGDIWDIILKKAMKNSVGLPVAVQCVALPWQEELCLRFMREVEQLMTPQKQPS

mDAGLα = target: T5, mDAGLα (Mus musculus, UniProt Q6WQJ1); test: Radio-TLC assay with [14C]SAG substrate, mDAGLα
T5 sequence (Q6WQJ1 1-1044): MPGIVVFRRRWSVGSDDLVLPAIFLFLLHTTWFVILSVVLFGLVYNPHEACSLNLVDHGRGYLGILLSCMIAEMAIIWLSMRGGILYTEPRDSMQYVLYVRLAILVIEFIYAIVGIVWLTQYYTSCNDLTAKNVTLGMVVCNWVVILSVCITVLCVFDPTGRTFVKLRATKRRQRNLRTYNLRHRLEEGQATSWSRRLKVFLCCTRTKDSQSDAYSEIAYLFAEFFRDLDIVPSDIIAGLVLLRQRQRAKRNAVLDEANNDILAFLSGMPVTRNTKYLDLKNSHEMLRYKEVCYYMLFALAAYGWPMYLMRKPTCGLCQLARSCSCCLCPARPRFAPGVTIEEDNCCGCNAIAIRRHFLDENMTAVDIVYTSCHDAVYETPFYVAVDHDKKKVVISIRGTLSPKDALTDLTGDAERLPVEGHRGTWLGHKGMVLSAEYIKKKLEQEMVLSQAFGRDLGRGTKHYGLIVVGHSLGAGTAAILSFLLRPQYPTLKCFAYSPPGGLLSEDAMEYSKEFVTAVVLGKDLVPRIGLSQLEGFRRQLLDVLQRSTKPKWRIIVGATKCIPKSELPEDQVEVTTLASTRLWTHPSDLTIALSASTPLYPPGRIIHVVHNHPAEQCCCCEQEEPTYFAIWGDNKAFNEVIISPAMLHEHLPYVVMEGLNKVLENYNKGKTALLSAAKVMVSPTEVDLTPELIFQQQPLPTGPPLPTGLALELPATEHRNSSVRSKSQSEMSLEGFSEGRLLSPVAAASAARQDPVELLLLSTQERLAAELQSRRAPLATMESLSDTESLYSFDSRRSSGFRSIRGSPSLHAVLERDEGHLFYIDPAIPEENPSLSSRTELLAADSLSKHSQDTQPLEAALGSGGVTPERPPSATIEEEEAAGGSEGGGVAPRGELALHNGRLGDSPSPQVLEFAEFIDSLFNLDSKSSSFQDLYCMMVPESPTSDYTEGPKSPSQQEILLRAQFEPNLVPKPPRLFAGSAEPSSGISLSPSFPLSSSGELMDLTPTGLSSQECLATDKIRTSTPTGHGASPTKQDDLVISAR

cannabinoid receptors = settings: literature; cited from earlier work
hDAGLα [6] = target: T1, hDAGLα; remark: listed apart in the source
FAAH = settings: cited from earlier work
DAGL = settings: cited from earlier work
MAGL [7] = target: T3, MAGL; settings: cited from earlier work

quality as substrate for enzymatic hydrolysis (hDAGLα [1]): poor substrates
Compound: 1-(5-Dimethyloxazolinyloxyl)stearoyl-2-pyrenebutanoyl-3-methyl-sn-glycerol [Compound 21]

quality as substrate for enzymatic hydrolysis (hDAGLα [1]): poor substrates
Compound: 1-(16-Dimethyloxazolinyloxyl)stearoyl-2-pyrenebutanoyl-3-methyl-sn-glycerol [Compound 22]

Lipoprotein Lipase (Bacterial) inhibition at 10 μM (%) ([2]; 10 μM): <0%
inhibition at 10 µM ([3]; read-out: Pancreatic Lipase (Porcine) inhibition at 10 μM (%)): 36%
Compound: CCCCCCCCCCCCCC1CC(=O)O1 (racemic) [Compound 9, 4-Tridecyloxetan-2-one]

Lipoprotein Lipase (Bacterial) inhibition at 10 μM (%) ([2]; 10 μM): 67%
inhibition at 10 µM (MAGL [4]; read-out: hMAGL inhibition at 10 μM (%)): 56%
Compound: CCCCCCC[C@@H]1OC(=O)[C@H]1CCCCCC (relative stereo) [Compound 10, trans-3-hexyl-4-heptyloxetan-2-one]

Lipoprotein Lipase (Bacterial) inhibition at 10 μM (%) ([2]; 10 μM): 33%
Compound: CCCCCCC[C@H]1OC(=O)[C@H]1CCCCCC (relative stereo) [Compound 11, cis-3-Hexyl-4-heptyloxetan-2-one]

hDAGLα inhibition at 10 μM (0.05% Triton X-100) (%), FRET (hDAGLα [5]; 10 μM): 99%
hDAGLα inhibition at 10 μM detergent free (%), FRET (hDAGLα [5]; 10 μM, detergent free): 92%
rFAAH inhibition at 10 μM (%) (rFAAH; 10 μM): 7%
Lipoprotein Lipase (Bacterial) inhibition at 10 μM (%) ([2]; 10 μM): 84%
hMAGL inhibition at 10 μM (%) (MAGL [4]): 16%
mDAGLα inhibition at 10 nM (%) (mDAGLα): 69%
mDAGLα inhibition at 100 nM (%) (mDAGLα): 80%
mDAGLα inhibition at 1000 nM (%) (mDAGLα): 96%
mDAGLα inhibition at 10000 nM (%) (mDAGLα): 96%
Pancreatic Lipase (Porcine) inhibition at 10 μM (%) ([3]; 10 μM): 99%
Compound: CCCCCCCCCCC[C@@H](C[C@@H]1OC(=O)[C@H]1CCCCCC)OC(=O)[C@@H](NC=O)[C@@H](C)CC [Compound 4]

hDAGLα inhibition at 10 μM (0.05% Triton X-100) (%), FRET (hDAGLα [5]; 10 μM): 99%
hDAGLα inhibition at 10 μM detergent free (%), FRET (hDAGLα [5]; 10 μM, detergent free): 92%
rFAAH inhibition at 10 μM (%) (rFAAH; 10 μM): 3%
Lipoprotein Lipase (Bacterial) inhibition at 10 μM (%) ([2]; 10 μM): 61%
hMAGL inhibition at 10 μM (%) (MAGL [4]): 1%
mDAGLα inhibition at 10 nM (%) (mDAGLα): 60%
mDAGLα inhibition at 100 nM (%) (mDAGLα): 61%
mDAGLα inhibition at 1000 nM (%) (mDAGLα): 88%
mDAGLα inhibition at 10000 nM (%) (mDAGLα): 100%
Pancreatic Lipase (Porcine) inhibition at 10 μM (%) ([3]; 10 μM): 98%
Compound: CCCCCCCCCCC[C@@H](C[C@@H]1OC(=O)[C@H]1CCCCCC)OC(=O)[C@@H](NC=O)[C@H](C)CC [Compound 5]

Compound: O=C(Oc1ccc([N+](=O)[O-])cc1)N1CCN(Cc2cccc(Oc3ccccc3)c2)CC1 [JZL195]
hDAGLα inhibition at 10 μM detergent free (%), FRET (hDAGLα [5]): 64, 55° %
hDAGLα inhibition at 10 μM detergent free (%), FRET, marker ° (hDAGLα [5]): 64, 55° %
Lipoprotein Lipase (Bacterial) inhibition at 10 μM (%) [2]: <0%
mDAGLα inhibition at 10000 nM (%) (mDAGLα): 10%
Pancreatic Lipase (Porcine) inhibition at 10 μM (%) [3]: 43%

Compound: O=S(=O)(F)Cc1ccccc1 [PMSF, phenylmethylsulfonylfluoride]
Lipoprotein Lipase (Bacterial) inhibition at 10 μM (%) [2]: <0%
binding to the cannabinoid receptors, previous reports (cannabinoid receptors): did not bind
inhibition of hDAGLα in radio-TLC assays (hDAGLα [6]): poor inhibitors
inhibition of FAAH activity reported in the literature (FAAH): poor inhibitors
effect on DAGL activity reported in the literature (DAGL): poor inhibitors; also recorded: not affected
inhibition of MAGL activity reported in the literature (MAGL [7]): poor inhibitors

Compound: CCCCCCCCCCCCCCCCS(=O)(=O)F [n-C16H33SO2F, Palmitylsulfonyl fluoride]
rFAAH inhibition at 10 μM (%) (rFAAH): 100^E %
IC50 (rFAAH; read-out: rFAAH apparent IC50 (8 pt, 95% confidence)): 6.3 nM
IC50 (FAAH; read-out: IC50 FAAH with radiolabeled N-arachidonoylethanolamine (anandamide) substrate): 7 nM
